The results in this text go back to the OligoGym collection.

HELM strings list units from the 5' end as sugar, base in round brackets, then linkage (d deoxyribose, r ribose, m 2'-O-methyl, p phosphodiester). Strings are as the collection lists them; they lack the last nucleoside at the 3' end of the tested compound. [moe] = 2'-O-(2-methoxyethyl) (MOE); [sp] = phosphorothioate linkage; [m5C] = 5-methylcytosine

The target of the data set is ATXN2. In words: mouse, dose not given. The note with it: ASO.
Turning to “RNA1{[moe]([m5C])[sp].[moe](T)[sp].[moe]([m5C])[sp].[moe](T)[sp].[moe]([m5C])[sp].d([m5C])[sp].d(A)[sp].d(T)[sp].d(T)[sp].d(A)[sp].d(T)[sp].d(T)[sp].d(T)[sp].d([m5C])[sp].d(T)[sp].[moe](T)[sp].[moe]([m5C])[sp].[moe](A)[sp].[moe]([m5C])}$$$$ (last 3' nucleoside missing)”, the 3 h FOB score stood at 7 score 0-7. “RNA1{[moe]([m5C])[sp].[moe](T)p.[moe](A)p.[moe](A)p.[moe]([m5C])[sp].d(T)[sp].d(G)[sp].d(G)[sp].d(T)[sp].d(T)[sp].d(T)[sp].d(G)[sp].d([m5C])[sp].[moe]([m5C])p.[moe]([m5C])p.[moe](T)[sp].[moe](T)}$$$$ (last 3' nucleoside missing)” registered a 3 h FOB score of 7 score 0-7.

For “RNA1{[moe]([m5C])[sp].[moe](T)p.[moe](A)p.[moe](G)p.[moe](G)p.d(T)[sp].d(G)[sp].d(A)[sp].d(T)[sp].d(G)[sp].d(T)[sp].d(T)[sp].d(T)[sp].d([m5C])[sp].d(A)[sp].[moe](T)p.[moe](T)p.[moe](G)[sp].[moe](G)}$$$$ (last 3' nucleoside missing)”, the 3 h FOB score is 7 score 0-7. Under “RNA1{[moe]([m5C])[sp].[moe](T)p.[moe](A)p.[moe](T)p.[moe](T)[sp].d(T)[sp].d([m5C])[sp].d(T)[sp].d(T)[sp].d(T)[sp].d(G)[sp].d(T)[sp].d([m5C])[sp].[moe]([m5C])p.[moe](A)p.[moe](G)[sp].[moe](G)}$$$$ (last 3' nucleoside missing)” stands 3.25 score 0-7. Under “RNA1{[moe]([m5C])[sp].[moe](T)p.[moe](A)p.[moe](T)p.[moe]([m5C])[sp].d(A)[sp].d(T)[sp].d([m5C])[sp].d(A)[sp].d(T)[sp].d(T)[sp].d(T)[sp].d(T)[sp].[moe]([m5C])p.[moe]([m5C])p.[moe](A)[sp].[moe](G)}$$$$ (last 3' nucleoside missing)” stands 1 score 0-7; under “RNA1{[moe]([m5C])[sp].[moe](T)p.[moe](A)p.[moe](T)p.[moe]([m5C])p.d(A)[sp].d(T)[sp].d([m5C])[sp].d(A)[sp].d(T)[sp].d(T)[sp].d(T)[sp].d(T)[sp].d([m5C])[sp].d([m5C])[sp].[moe](A)p.[moe](G)p.[moe](G)[sp].[moe](G)}$$$$ (last 3' nucleoside missing)”, 1 score 0-7; under “RNA1{[moe]([m5C])[sp].[moe](T)p.[moe](G)p.[moe](G)p.[moe](A)[sp].d(T)[sp].d(T)[sp].d([m5C])[sp].d(T)[sp].d(G)[sp].d(T)[sp].d(A)[sp].d([m5C])[sp].[moe](T)p.[moe](T)p.[moe](T)[sp].[moe](T)}$$$$ (last 3' nucleoside missing)”, 3.75 score 0-7. For “RNA1{[moe]([m5C])[sp].[moe](T)p.[moe](G)p.[moe](G)p.[moe](A)p.[moe](T)p.d(T)[sp].d([m5C])[sp].d(T)[sp].d(G)[sp].d(T)[sp].d(A)[sp].d([m5C])[sp].d(T)[sp].d(T)[sp].d(T)[sp].[moe](T)p.[moe]([m5C])[sp].[moe](T)}$$$$ (last 3' nucleoside missing)” the value was 1 score 0-7; for “RNA1{[moe]([m5C])[sp].[moe](T)p.[moe](G)p.[moe](G)p.[moe](A)p.d(T)[sp].d(T)[sp].d([m5C])[sp].d(T)[sp].d(G)[sp].d(T)[sp].d(A)[sp].d([m5C])[sp].d(T)[sp].d(T)[sp].[moe](T)p.[moe](T)p.[moe]([m5C])[sp].[moe](T)}$$$$ (last 3' nucleoside missing)”, 5.25 score 0-7. The substance “RNA1{[moe]([m5C])[sp].[moe](T)p.[moe](G)p.[moe](G)p.[moe](T)p.d(T)[sp].d([m5C])[sp].d([m5C])[sp].d(T)[sp].d(T)[sp].d(A)[sp].d([m5C])[sp].d(A)[sp].d(A)[sp].d(T)[sp].[moe](T)p.[moe](A)p.[moe](T)[sp].[moe]([m5C])}$$$$ (last 3' nucleoside missing)” gave a 3 h FOB score of 1 score 0-7. For “RNA1{[moe]([m5C])[sp].[moe](T)p.[moe](G)p.[moe](G)p.d(A)[sp].d(T)[sp].d(T)[sp].d([m5C])[sp].d(T)[sp].d(G)[sp].d(T)[sp].d(A)[sp].d([m5C])[sp].d(T)[sp].[moe](T)p.[moe](T)p.[moe](T)p.[moe]([m5C])[sp].[moe](T)}$$$$ (last 3' nucleoside missing)” the value was 2 score 0-7; for “RNA1{[moe]([m5C])[sp].[moe](T)p.[moe](G)p.[moe](T)p.[moe](A)[sp].d([m5C])[sp].d(T)[sp].d(T)[sp].d(T)[sp].d(T)[sp].d([m5C])[sp].d(T)[sp].d([m5C])[sp].[moe](A)p.[moe](T)p.[moe](G)[sp].[moe](T)}$$$$ (last 3' nucleoside missing)”, 3.5 score 0-7. Take “RNA1{[moe]([m5C])[sp].[moe](T)p.[moe](G)p.[moe](T)p.[moe](A)p.d([m5C])[sp].d(T)[sp].d(T)[sp].d(T)[sp].d(T)[sp].d([m5C])[sp].d(T)[sp].d([m5C])[sp].d(A)[sp].d(T)[sp].[moe](G)p.[moe](T)p.[moe](G)[sp].[moe]([m5C])}$$$$ (last 3' nucleoside missing)”: the 3 h FOB score turned out to be 1.25 score 0-7. “RNA1{[moe]([m5C])[sp].[moe](T)p.[moe](G)p.[moe](T)p.[moe](G)p.d(A)[sp].d(G)[sp].d(T)[sp].d(T)[sp].d([m5C])[sp].d(A)[sp].d([m5C])[sp].d([m5C])[sp].d(T)[sp].d(G)[sp].[moe]([m5C])p.[moe](A)p.[moe](T)[sp].[moe]([m5C])}$$$$ (last 3' nucleoside missing)” yielded a 3 h FOB score of 1 score 0-7. In turn, “RNA1{[moe]([m5C])[sp].[moe](T)p.[moe](G)p.[moe](T)p.[moe](G)p.d(T)[sp].d(A)[sp].d(T)[sp].d(T)[sp].d(T)[sp].d(T)[sp].d(T)[sp].d([m5C])[sp].d(T)[sp].d(T)[sp].[moe]([m5C])p.[moe]([m5C])p.[moe](T)[sp].[moe]([m5C])}$$$$ (last 3' nucleoside missing)” had a 3 h FOB score of 0 score 0-7. In turn, “RNA1{[moe]([m5C])[sp].[moe](T)p.[moe](G)p.[moe]([m5C])p.[moe](T)[sp].d(A)[sp].d(A)[sp].d([m5C])[sp].d(T)[sp].d(G)[sp].d(G)[sp].d(T)[sp].d(T)[sp].[moe](T)p.[moe](G)p.[moe]([m5C])[sp].[moe]([m5C])}$$$$ (last 3' nucleoside missing)” showed a 3 h FOB score of 4 score 0-7.

Take “RNA1{[moe]([m5C])[sp].[moe](T)p.[moe](G)p.[moe]([m5C])p.[moe](T)p.[moe](A)p.d(A)[sp].d([m5C])[sp].d(T)[sp].d(G)[sp].d(G)[sp].d(T)[sp].d(T)[sp].d(T)[sp].d(G)[sp].d([m5C])[sp].[moe]([m5C])p.[moe]([m5C])[sp].[moe](T)}$$$$ (last 3' nucleoside missing)”: the 3 h FOB score came out at 5.5 score 0-7. Substance “RNA1{[moe]([m5C])[sp].[moe](T)p.[moe](G)p.[moe]([m5C])p.[moe](T)p.d(A)[sp].d(A)[sp].d([m5C])[sp].d(T)[sp].d(G)[sp].d(G)[sp].d(T)[sp].d(T)[sp].d(T)[sp].d(G)[sp].[moe]([m5C])p.[moe]([m5C])p.[moe]([m5C])[sp].[moe](T)}$$$$ (last 3' nucleoside missing)” came in with a 3 h FOB score of 6 score 0-7.
